Numbered stars: 1 amine (or outer) side, 2 acyl side, 3 side chain; on linkers, the order of the positions; unused ones are H or OH. Bridge positions count the residues as written; N and C are the ends. Square brackets hold non-standard residues; d marks the D form. Peptide text beside a SMILES is read from it. Trp(5-Cl) = N[C@@H](Cc1c[nH]c2ccc(Cl)cc12)C(=O)O; Phe(4-Cl) = N[C@@H](Cc1ccc(Cl)cc1)C(=O)O; mXylylene = c1cc(C[*:1])cc(C[*:2])c1; NMeY = CN[C@@H](Cc1ccc(O)cc1)C(=O)O; NMeI = CC[C@H](C)[C@H](NC)C(=O)O; NMeT = CN[C@H](C(=O)O)[C@@H](C)O; X2 = O=C(Cc1cccc(C[*:2])c1)[*:1]; dPhg = N[C@@H](C(=O)O)c1ccccc1; Chg = N[C@H](C(=O)O)C1CCCCC1; Pen = CC(C)(S)[C@H](N)C(=O)O; Phg = N[C@H](C(=O)O)c1ccccc1; Tle = CC(C)(C)[C@H](N)C(=O)O; NMeS = CN[C@@H](CO)C(=O)O; Ac5c = NC1(C(=O)O)CCCC1; Dab = NCC[C@H](N)C(=O)O; Nva = CCC[C@H](N)C(=O)O; Aib = CC(C)(N)C(=O)O; Mpa = O=C(O)CCS; Sar = CNCC(=O)O

For orientation: IC50 means the midpoint of a concentration-inhibition curve.

The target in this assay is T1, human plasma kallikrein (Homo sapiens, UniProt P03952).
T1 construct: purchased Enzyme Research Laboratories HPKa 1303
T1 sequence (P03952 20-390 limits assumed): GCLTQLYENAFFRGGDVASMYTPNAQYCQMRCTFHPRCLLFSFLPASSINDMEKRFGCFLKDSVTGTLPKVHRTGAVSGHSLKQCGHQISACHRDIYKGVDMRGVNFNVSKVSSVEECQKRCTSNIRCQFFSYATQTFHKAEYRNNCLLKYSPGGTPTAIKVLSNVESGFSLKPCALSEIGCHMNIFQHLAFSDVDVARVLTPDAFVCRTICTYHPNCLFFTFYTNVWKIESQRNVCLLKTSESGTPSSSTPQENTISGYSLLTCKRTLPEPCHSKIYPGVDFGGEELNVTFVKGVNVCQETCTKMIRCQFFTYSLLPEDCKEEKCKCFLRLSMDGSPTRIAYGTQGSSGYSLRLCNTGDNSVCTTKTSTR
T1 sequence (P03952 391-638 limits assumed): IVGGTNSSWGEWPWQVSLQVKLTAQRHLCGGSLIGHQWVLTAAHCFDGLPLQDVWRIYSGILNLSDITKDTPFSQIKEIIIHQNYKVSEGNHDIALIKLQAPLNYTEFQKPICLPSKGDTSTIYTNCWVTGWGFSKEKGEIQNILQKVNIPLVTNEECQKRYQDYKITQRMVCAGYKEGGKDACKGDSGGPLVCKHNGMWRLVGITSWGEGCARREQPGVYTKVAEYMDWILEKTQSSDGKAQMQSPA
The experiment in a line: Enzyme inhibition assay (fluorogenic substrate H-Pro-Phe-Arg-AMC). The note with it: Kallikrein inhibitory activity; 1 nM activated human kallikrein, 500 μM H-Pro-Phe-Arg-AMC, 1 hour room temperature; read-out: Avg. IC50. The class given is biochemical. The protocol: Activated human plasma kallikrein (Enzyme Research Laboratories, HPKa 1303) was reacted with H-Pro-Phe-Arg-7-amido-4-methylcoumarin (H-Pro-Pre-Arg-AMC) (a fluorogenic substrate for plasma as well as pancreatic and urinary kallikreins; Bachem I-1295) and candidate inhibitory peptides to determine the IC50 of the inhibitor.
Ten 8-fold serial dilutions of peptides (10 mM DMSO stocks) were performed in DMSO and then added to TCNB (50 mM Tris-HCl pH 7.2, 150 mM NaCl, 10 mM CaCl2, 0.05% Brij-35) and sonicated. 50 μL of the peptide dilutions were added to microtitre plates (96 well, black non-binding surface, Corning, 3650) and incubated for 5 minutes at room temperature with 4 nM activated human kallikrein (final concentration after addition of fluorogenic substrate: 1 nM). The samples were then incubated for 1 hour at room temperature with 2 mM H-Pro-Phe-Arg-AMC (final concentration 500 μM). Relative Fluorescence Units (RFU) were measured at excitation/emission 360 nm/460 nm by a SpectraMax M3.
Take `CC(=O)N[C@@H](CS)C(=O)N[C@@H](CC(N)=O)C(=O)N[C@@H](Cc1ccc(O)cc1)C(=O)N[C@@H](Cc1c[nH]c2ccccc12)C(=O)N[C@@H](CO)C(=O)N1CCC[C@H]1C(=O)N[C@@H](Cc1c[nH]c2ccccc12)C(=O)N[C@H](C(=O)N[C@@H](CCC(=O)O)C(=O)N[C@@H](CS)C(=O)N[C@@H](CO)C(=O)N[C@@H](C)C(N)=O)[C@@H](C)O` [Compound R2116, Ac-CNYWSPWTECSA-NH2] (Ac-CNYWSPWTECSA-NH2): the IC50 is 0.0035 µM.
As for `C[C@@H]1NC(=O)C(C)(C)NC(=O)CCSCc2cccc(c2)CSC[C@@H](C(=O)N[C@@H](CCCNC(=N)N)C(=O)N[C@H](C(N)=O)C(C)(C)C)NC(=O)[C@H](C2CCCCC2)NC1=O` [Compound R2091, [mXylyl(1,5)](des-NH2)C-Aib-A-Chg-CR-Tbg-NH2] ([Mpa][Aib]A[Chg]CR[Tle]-NH2; linker 1-5 via mXylylene), the IC50 was determined as 0.0032 µM.
Take `CC(=O)N[C@@H](CS)C(=O)N[C@@H](CC(N)=O)C(=O)N[C@H](Cc1ccc(O)cc1)C(=O)N[C@@H](Cc1c[nH]c2ccccc12)C(=O)N[C@@H](CO)C(=O)N1CCC[C@H]1C(=O)N[C@@H](Cc1c[nH]c2ccccc12)C(=O)N[C@H](C(=O)N[C@@H](C)C(=O)N[C@@H](CS)C(N)=O)[C@@H](C)O` [Compound R2232, Ac-CNyWSPWTAC-NH2] (Ac-CN[dY]WSPWTAC-NH2): the IC50 is above 1.95 µM.
Consider `CC[C@H](C)[C@H](NC(=O)[C@H](CO)NC(=O)[C@H](CCC(=O)O)NC(=O)[C@H](CS)NC(=O)[C@@H](N)CCSC)C(=O)N[C@@H](CS)C(=O)N[C@@H](CCCNC(=N)N)C(=O)N[C@H](C(N)=O)C(C)C` [Compound R2007, MCESICRV-NH2] (H-MCESICRV-NH2; N-terminus assumed), for which the IC50 was found to be 2 µM.
Turning to `CC[C@H](C)[C@@H]1NC(=O)[C@H](CO)NC(=O)[C@H](CCC(=O)O)NC(=O)[C@@H](NC(=O)[C@@H](N)CCSC)CSCc2cccc(c2)CSC[C@@H](C(=O)N[C@@H](CCCNC(=N)N)C(=O)N[C@@H](CCC(=O)O)C(N)=O)NC1=O` [Compound R2087, [mXylyl(2,6)]MCESICRE-NH2] (H-MCESICRE-NH2; linker 2-6 via mXylylene), the IC50 is above 16.6 µM.
As to `CC[C@@H](C)[C@@H]1NC(=O)[C@@H]2CCCN2C(=O)CCCCC/C=C/C[C@@H](C(=O)N[C@@H](CCCNC(=N)N)C(=O)N[C@H](C(N)=O)C(C)C)NC1=O` [Compound R2246], the IC50 was above 50 µM.
For `CC(=O)N[C@@H](CS)C(=O)N[C@@H](CC(N)=O)C(=O)N[C@@H](Cc1ccc(O)cc1)C(=O)N[C@@H](Cc1c[nH]c2ccccc12)C(=O)N(C)[C@@H](CO)C(=O)N1CCC[C@H]1C(=O)N[C@@H](Cc1c[nH]c2ccccc12)C(=O)N[C@H](C(=O)N[C@@H](C)C(=O)N[C@@H](CS)C(N)=O)[C@@H](C)O` [Compound R2237, Ac-CNYW-nMeS-PWTAC-NH2] (Ac-CNYW[NMeS]PWTAC-NH2), the IC50 is above 13.9 µM.
In the case of `CC(C)(C)[C@H](NC(=O)[C@H](CCCNC(=N)N)NC(=O)[C@@H]1CCOc2cccc(c2)OCCCC(=O)N2CCC[C@H]2C(=O)N[C@@H](C2CCCCC2)C(=O)N1)C(N)=O` [Compound R2256], the IC50 is above 100 µM.
The figure for `CC[C@@H](C)[C@@H]1NC(=O)CCCCCCC/C=C/C[C@@H](C(=O)N[C@@H](CCCNC(=N)N)C(=O)N[C@H](C(N)=O)C(C)C)NC1=O` [Compound R2240] is above 75 µM; for `CC[C@@H](C)[C@@H]1NC(=O)CCCCC/C=C/C[C@@H](C(=O)N[C@@H](CCCNC(=N)N)C(=O)N[C@H](C(N)=O)C(C)C)NC1=O` [Compound R2242] it is above 100 µM.
As to `CCC[C@H](N)C(=O)N[C@@H]1C(=O)N[C@@H](CCC(=O)O)C(=O)N[C@@H](CO)C(=O)N[C@@H]([C@@H](C)CC)C(=O)N[C@H](C(=O)N[C@@H](CCCNC(=N)N)C(=O)N[C@H](C(N)=O)C(C)C)CSCc2cccc(c2)CSC1(C)C` [Compound R2031, [mXylyl(2,6)]Nvl-Pen-ESICRV-NH2] (H-[Nva][Pen]ESICRV-NH2; linker 2-6 via mXylylene), the IC50 was found to be 1.46 µM.
Turning to `CC(C)(C)[C@H](NC(=O)[C@H](CCCNC(=N)N)NC(=O)[C@@H]1CSCc2cccc(c2)C/C=C/CC(=O)N2CCC[C@H]2C(=O)N[C@@H](C2CCCCC2)C(=O)N1)C(N)=O` [Compound R2261], the IC50 was 0.164 µM.
The figure for `CC(C)(C)[C@H](NC(=O)[C@H](CCN)NC(=O)[C@@H]1CSCc2cccc(c2)CSCCC(=O)N2CCC[C@H]2C(=O)N[C@@H](c2ccccc2)C(=O)N1)C(N)=O` [Compound R2211, [mXylyl(1,4)](des-NH2)C-P-Phg-C-Dab-Tbg-NH2] ([Mpa]P[Phg]C[Dab][Tle]-NH2; linker 1-4 via mXylylene) is above 75 µM; for `CC[C@@H](C)[C@@H]1NC(=O)[C@@H]2CCCN2C(=O)CCCCCCC/C=C/C[C@@H](C(=O)N[C@@H](CCCNC(=N)N)C(=O)N[C@H](C(N)=O)C(C)C)NC1=O` [Compound R2244] it is above 50 µM; for `CC(C)(C)[C@H](NC(=O)[C@H](Cc1c[nH]c2ccc(Cl)cc12)NC(=O)[C@@H]1CSCc2cccc(c2)CSCCC(=O)N2CCC[C@H]2C(=O)N[C@H](c2ccccc2)C(=O)N1)C(N)=O` [Compound R2210, [mXylyl(1,4)](des-NH2)C-P-(D-Phg)-C-5-C1-Trp-Tbg-NH2] ([Mpa]P[dPhg]C[Trp(5-Cl)][Tle]-NH2; linker 1-4 via mXylylene) it is above 75 µM.
The figure for `CC(C)(C)[C@H](NC(=O)[C@H](CCCNC(=N)N)NC(=O)[C@@H]1CSCc2cccc(c2)CC(=O)NCC(=O)N2CCC[C@H]2C(=O)N[C@@H](C2CCCCC2)C(=O)N1)C(N)=O` [Compound R2265] (GP[Chg]CR[Tle]-NH2; linker N-4 via X2) is 0.0392 µM; for `CC(C)(C)[C@H](NC(=O)[C@H](CCCNC(=N)N)NC(=O)[C@@H]1CSCc2cccc(c2)/C=C/CC(=O)N2CCC[C@H]2C(=O)N[C@@H](C2CCCCC2)C(=O)N1)C(N)=O` [Compound R2259] it is 1.46 µM; for “Ac-SPWTECSA-NH2 [Compound R2120, Ac-SPWTECSA-NH2]” it is above 100 µM.
As for `CC(C)(C)[C@H](NC(=O)[C@H](CCCNC(=N)N)NC(=O)[C@@H]1CCn2cc(nn2)CCCCC(=O)N2CCC[C@H]2C(=O)N[C@@H](C2CCCCC2)C(=O)N1)C(N)=O` [Compound R2249], the IC50 is above 100 µM.
Turning to `C[C@@H]1NC(=O)C2(CCCC2)NC(=O)CCSCc2cccc(c2)CSC[C@@H](C(=O)N[C@@H](CCCNC(=N)N)C(=O)N[C@H](C(N)=O)C(C)(C)C)NC(=O)[C@H](C2CCCCC2)NC1=O` [Compound R2169, [mXylyl(1,5)](des-NH2)C-(Cyclo-L)-A-Chg-CR-Tbg-NH2] ([Mpa][Ac5c]A[Chg]CR[Tle]-NH2; linker 1-5 via mXylylene), the IC50 was 0.0019 µM.
On to `CC(=O)N[C@@H](CS)C(=O)N[C@@H](CC(N)=O)C(=O)N[C@@H](Cc1ccc(O)cc1)C(=O)N[C@@H](Cc1c[nH]c2ccccc12)C(=O)N[C@@H](CO)C(=O)N1CCC[C@@H]1C(=O)N[C@@H](Cc1c[nH]c2ccccc12)C(=O)N[C@H](C(=O)N[C@@H](C)C(=O)N[C@@H](CS)C(N)=O)[C@@H](C)O` [Compound R2229, Ac-CNYWSpWTAC-NH2] (Ac-CNYWS[dP]WTAC-NH2), for which the IC50 was above 14.3 µM.
Regarding `CC(C)(C)[C@H](NC(=O)[C@H](Cc1ccc(Cl)cc1)NC(=O)[C@@H]1CSCc2cccc(c2)CSCCC(=O)N2CCC[C@H]2C(=O)N[C@H](c2ccccc2)C(=O)N1)C(N)=O` [Compound R2206, [mXylyl(1,4)](des-NH2)C-P-(D)Phg-C-4-Cl-Phe-Tbg-NH2] ([Mpa]P[dPhg]C[Phe(4-Cl)][Tle]-NH2; linker 1-4 via mXylylene), the IC50 was above 75 µM.
The figure for `CC[C@H](C)[C@H]1C(=O)N[C@H](C(=O)N[C@@H](CCCNC(=N)N)C(=O)N[C@H](C(N)=O)C(C)C)CSCc2cccc(c2)CSC[C@H](NC(=O)[C@@H](N)CCSC)C(=O)N[C@@H](CCC(=O)O)C(=O)N[C@@H](CO)C(=O)N1C` [Compound R2026, [mXylyl(2,6)]MCES-nMeI-CRV-NH2] (H-MCES[NMeI]CRV-NH2; linker 2-6 via mXylylene) is 0.026 µM; for `CC(C)(C)[C@H](NC(=O)[C@H](CCCNC(=N)N)NC(=O)[C@@H]1COc2cccc(c2)OCCCC(=O)N2CCC[C@H]2C(=O)N[C@@H](C2CCCCC2)C(=O)N1)C(N)=O` [Compound R2255] it is above 25 µM.
Regarding `CN1CC(=O)N2CCC[C@H]2C(=O)N[C@@H](C2CCCCC2)C(=O)N[C@H](C(=O)N[C@@H](CCCNC(=N)N)C(=O)N[C@H](C(N)=O)C(C)(C)C)CSCc2cccc(c2)CC1=O` [Compound R2257] ([Sar]P[Chg]CR[Tle]-NH2; linker N-4 via X2), the 50% inhibitory concentration (IC50) is 0.383 µM.
For `CCC[C@H](N)C(=O)N[C@H]1CSCc2cccc(c2)CSC[C@@H](C(=O)N[C@@H](CCCNC(=N)N)C(=O)N[C@H](C(N)=O)C(C)(C)C)NC(=O)[C@H](c2ccccc2)NC(=O)[C@H](CO)NC(=O)[C@H](CCC(=O)O)NC1=O` [Compound R2013, [mXylyl(2,6)]Nvl-CES-Phg-CR-Tbg-NH2] (H-[Nva]CES[Phg]CR[Tle]-NH2; linker 2-6 via mXylylene), the IC50 was determined as 0.0068 µM.
For the molecule `CC(=O)N[C@H]1CSSC[C@@H](C(N)=O)NC(=O)[C@H](C)NC(=O)[C@H]([C@@H](C)O)N(C)C(=O)[C@H](Cc2c[nH]c3ccccc23)NC(=O)[C@@H]2CCCN2C(=O)[C@H](CO)N(C)C(=O)[C@H](Cc2c[nH]c3ccccc23)NC(=O)[C@H](Cc2ccc(O)cc2)N(C)C(=O)[C@H](CC(N)=O)NC1=O` [Compound R2224, [cyclo(1,10)]Ac-CN-nMeY-W-nMeS-PW-nMeT-AC-NH2] (Ac-CN[NMeY]W[NMeS]PW[NMeT]AC-NH2; disulfide 1-10), the IC50 is above 100 µM.

The record behind these values is patent publication US9999650B2, “Peptide and peptidomimetic inhibitors” (Ra Pharmaceuticals, Inc., priority 2012, dated 2018).
